Measured values: PMC7310436, “JP3, an antiangiogenic peptide, inhibits growth and metastasis of gastric cancer through TRIM25/SP1/MMP2 axis” (Journal of Experimental & Clinical Cancer Research : CR, 2020)
Where a SMILES comes first, the peptide text is derived from it. [ ]: non-standard residue; d: D form. pY = N[C@@H](Cc1ccc(OP(=O)(O)O)cc1)C(=O)O; pT = C[C@@H](OP(=O)(O)O)[C@H](N)C(=O)O

Columns and labels:
BGC823 cells [1] = experiment: Xenograft screening of MMP2-targeted peptides by intraperitoneal injection; assay type: in vivo, BALB/c nude mice
Experimental: (§1) For establishing xenograft mouse models, 5 × 10^6/200 μL of BGC823 cells were subcutaneously injected into flank of BALB/c nude mice. When the tumor volume (V = 0.5 × length × width^2) reached about 100 mm^3, the mice were randomly divided into different groups and received the indicated treatments. General situations and activities of each mouse were daily recorded. Tumor sizes were recorded by caliper every 3 days for calculating tumor volumes. Body weight of the experimental mouse was also recorded every 3 days. The endpoint of the experimental therapy was determined until enough growth (up to 2000 mm^3) of the xenograft tumor or intolerable side effects.
(§2) In the present study, the strategy to screen JWA protein based functional tumor inhibitory peptides included four steps, (1) all the candidate fragments were selected from non-transmembrane regions and contain amino acid can be phosphorylated in its sequence; (2) the intra-tumor injection in xenograft GC tumor in mouse model was used for first round screening for all candidate fragments; (3) the identified functional peptides in (2) were modified with HWGF as MMP2 target and used for secondary screening by intraperitoneal injection in xenograft GC mouse model; (4) the functional peptides selected in (3) were further used to inhibit metastasis of GC (Fig. 1a).

BGC823 cells [2] = experiment: Colony formation assay; assay type: cell-based, human; conditions: different concentrations of JP3
SP1 [3] = experiment: Protein stability, CHX chase and Western blotting; assay type: cell-based, human; conditions: BGC823 cells; 50 μM for 24 h, then CHX
Experimental: (§3) Western blotting analysis was carried out as previously described. The antibodies against MMP2, Tubulin, Ub, HA-tag, Flag-tag and Ki-67 were purchased from Cell Signal Technology (Danvers MA, USA); anti-CD31 and PCNA were provided by Epitomics (MA, USA); anti-GAPDH and Actin were purchased from Beyotime (Jiangsu, China); anti-TRIM25 and SP1 were provided by Proteintech (Wuhan, China); anti-His was purchased from MBL (Japan). All above antibodies were used at a dilution of 1:1000.

TRIM25 [4] = experiment: Protein stability, CHX chase and Western blotting; assay type: cell-based, human; conditions: BGC823 cells; 50 μM for 12 h, then CHX
Experimental: as §3

TRIM25 [5] = experiment: Western blotting in BGC823 cells; assay type: cell-based, human; conditions: 0, 1, 10, 50 μM for 24 h
Experimental: as §3

BGC823 cells [6] = experiment: Metastatic GC mouse model (tail vein injection, bioluminescence imaging, HE staining of lung); assay type: in vivo, BALB/c nude mice
Experimental: For establishment of metastatic GC mouse model, five-week-old BALB/c nude mice were randomly divided into two groups, 3 mice each. BGC823 cells were suspended in PBS. The mice were injected intravenously with 2 × 10^6 cells in 0.15 mL of PBS through tail vein. On next day, the mice were treated by intra-peritoneal (ip) injection of Ctrl-H-P and JP3 and followed by luciferase substrate (GM-040611, Genomeditech, China); and photographed using the IVIS Spectrum in vivo imaging system (PerkinElmer, USA) on day 50th to observe the cancer cell metastasis.

SP1 [7] = experiment: Western blotting in GC cells; assay type: cell-based; conditions: SGC7901 and BGC823 (Non(p)-JP3: BGC823, 24 h)
Experimental: as §3

SP1 [8] = experiment: Ubiquitination assay; assay type: cell-based, human
Experimental: (§4) GC cells were treated with or without JP3, followed by incubation with MG132 (10 μM) for another 6 h. Cells were harvested, prepared for protein samples and divided for Western blotting and co-IP assay, respectively. For co-IP assay, the protein (500 μg) was cultured with anti-SP1 or anti-TRIM25 antibody (dilution: 1:250) at 4 °C for 1 h, and Protein A/G Plus-Agarose overnight. After three cycles of washing in pre-cold IP buffer and centrifugation at 4 °C, 1000×g for 5 min, the immunoprecipitate was collected by centrifugation, eluted and examined by Western blotting.

TRIM25 [9] = experiment: Ubiquitination assay; assay type: cell-based, human; conditions: BGC823 cells; His-Ub 48 h, 50 μM 24 h, MG132 10 μM 6 h; IP anti-TRIM25
Experimental: as §4

SP1 mRNA = experiment: qRT-PCR; assay type: cell-based, human; conditions: BGC823 and SGC7901 cells
Experimental: (§5) According to the manufacturer’s protocol, total RNAs were isolated using TRIzol (Invitrogen, CA, USA) and reversely transcribed into cDNAs using reverse transcription kit and the SYBR Green Master Mix kit (Takara, Otsu, Japan). The complementary DNA (cDNA) was amplified with the following primers: 5′-[…]-3′ (forward) and 5′-[…]-3′ (reverse) for TRIM25; 5′-[…]-3′ (forward) and 5′-[…]-3′ (reverse) for GAPDH; 5′-[…]’-3′ (forward) and 5′-[…]-3′ (reverse) for SP1. Quantitative RT-PCR was carried out an ABI Prism 7900 Sequence detection system (Applied Biosystems, Canada). Relative levels were normalized to that of GAPDH.

TRIM25 mRNA = experiment: qRT-PCR; assay type: cell-based, human
Experimental: as §5

[10] = Toxicity and body weight in treated mice; assay type: in vivo, BALB/c nude mice; conditions: xenograft and metastatic mice models
SP1 [11] = experiment: Western blotting of xenograft tumor tissues; assay type: in vivo, BALB/c nude mice; conditions: compared to the Ctrl-P-H treatment
Experimental: as §3

PCNA = experiment: Western blotting of xenograft tumor tissues; assay type: in vivo, BALB/c nude mice; conditions: nude mice bearing GC
Experimental: as §3

TRIM25 [12] = experiment: Western blotting of xenograft tumor tissues; assay type: in vivo, BALB/c nude mice; conditions: compared to the Ctrl-P-H treatment
Experimental: as §3

CD31 [13] = experiment: Western blotting of xenograft tumor tissues; assay type: in vivo, BALB/c nude mice; conditions: nude mice bearing GC
Experimental: as §3

MMP2 [14] = experiment: Western blotting of xenograft tumor tissues; assay type: in vivo, BALB/c nude mice; conditions: nude mice bearing GC
Experimental: as §3

JWA = experiment: Western blotting in GC cells; assay type: cell-based, human; conditions: SGC7901 and BGC823
Experimental: as §3

MMP2 [15] = experiment: Western blotting in GC cells; assay type: cell-based, human; conditions: SGC7901 and BGC823 (Non(p)-JP3: BGC823, 24 h)
Experimental: as §3

HUVECs [16] = experiment: HUVECs tube formation assay with conditional medium of peptide-treated GC cells; assay type: cell-based, human; conditions: 4 h on Matrigel
Experimental: After 6 hours of peptide treatment of GC cells, the medium was replaced and cultured in a 60 mm petri dish containing 1% serum for 24 h. On the next day, 2 mL of conditional medium was collected. For tube formation assay, a 96-well plate was coated with 50 μL of Matrigel™ (BD Biosciences) and kept at 37 °C for 2 h. Then, 1.2 × 10^4 HUVECs suspended in 100 μL of conditional medium were applied to each well of the precoated 96-well plate. After incubation at 37 °C for 4 h, tubular structures formed in the Matrigel were captured in five randomly selected fields per sample under a microscope.

[17] = system: CD31 (microvessel density (MVD)); experiment: IHC of xenograft tumor sections; assay type: in vivo, BALB/c nude mice
Experimental: (§6) Fig. 1 MMP2-targeted polypeptide JP3 inhibits growth and metastasis of GC in vivo. a The screening flowchart of JWA candidate peptides in nude mice. b The name and amino acid sequence of six fragments. c The ratios of mouse xenograft tumor weight/mice weight from screening model by intratumor injection. d The inhibition rates of tumor growth from screening model by intraperitoneal injection. e The expression levels of MMP2, CD31 and PCNA protein were analyzed using Western blotting in tumor tissues from nude mice bearing GC. f-g Sections of tumors were stained with anti-Ki-67 and anti-CD31 antibodies by IHC (scale bars = 50 μm). h-i The luciferase signals in the mice were detected and photographed using an IVIS in vivo image system. j-k The representative HE staining sections of lung (scale bars = 2 mm). l-m Sections of lung were stained with anti-CD31 antibodies by IHC (scale bars = 50 μm). The data are presented as the means ± SEM, ns: no significance, *P < 0.05, **P < 0.01

Ki-67 = experiment: IHC of xenograft tumor sections; assay type: in vivo, BALB/c nude mice
Experimental: as §6

CD31 [18] = experiment: IHC of lung sections, metastatic GC mouse model; assay type: in vivo, BALB/c nude mice
Experimental: as §6
For establishment of metastatic GC mouse model, five-week-old BALB/c nude mice were randomly divided into two groups, 3 mice each. BGC823 cells were suspended in PBS. The mice were injected intravenously with 2 × 10^6 cells in 0.15 mL of PBS through tail vein. […]

HUVECs [19] = experiment: HUVECs tube formation assay, direct treatment of HUVECs; assay type: cell-based, human; conditions: HUVECs treated at similar dose for 24 h
BGC823 cells [20] = experiment: Xenograft screening of candidate peptides by intra-tumor injection; assay type: in vivo, BALB/c nude mice; conditions: BGC823 subcutaneous xenograft; intra-tumor injection 10 mg/kg/d for 5 days/week x 2 weeks
Experimental: as §1, §2

## HWGF [histidine-tryptophan-glycine-phenylalanine, reference compound]
BGC823 cells [1]; HWGF targeting MMP2 alone
  biological function to inhibit gastric cancer: no biological function to inhibit gastric cancer

## CSCC[C@H](NC(=O)[C@H](CCCNC(=N)N)NC(C)=O)C(=O)N[C@@H](CCCCN)C(=O)N[C@@H](CCCCN)C(=O)N[C@@H](CCCNC(=N)N)C(=O)N[C@@H](Cc1ccc(O)cc1)C(=O)N1CCC[C@H]1C(=O)N[C@H](C(=O)N[C@H](C(=O)N[C@@H](Cc1ccccc1)C(=O)N[C@H](C(=O)N[C@@H](CCSC)C(=O)N[C@H](C(=O)N[C@H](C(=O)NCC(=O)NCC(=O)NCC(=O)NCC(=O)N[C@@H](Cc1c[nH]cn1)C(=O)N[C@@H](Cc1c[nH]c2ccccc12)C(=O)NCC(=O)N[C@@H](Cc1ccccc1)C(N)=O)C(C)C)C(C)C)C(C)C)[C@@H](C)OP(=O)(O)O)[C@@H](C)O [JP3] (Ac-RMKKRYPT[pT]FVMVVGGGGHWGF-NH2)
BGC823 cells [2]
  effect on GC cell proliferation in vitro (colony numbers): no obvious effects
SP1 [3]
  degradation (stability) of SP1: accelerated degradation
TRIM25 [4]
  degradation (stability) of TRIM25: slowed down the degradation
TRIM25 [5]
  TRIM25 protein level: dose-dependent increase
BGC823 cells [6]; HE staining
  relative area of metastatic tumor in lung: significantly decreased
BGC823 cells [6]; bioluminescence imaging on day 50, ip injection, compared with Ctrl-P-H group, 3 mice each
  fluorescence intensity of GC cell metastatic foci: obviously reduced
SP1 [7]
  expression of SP1 in GC cells: down-regulated
SP1 [8]; BGC823, His-ub, JP3 50 μM, with MG132 10 μM 6 h, control = 1.00, MG132 alone 1.50
  relative band intensity printed with the blot (IP: SP1, IB: ubiquitin): 2.17
SP1 [8]; BGC823 and SGC7901 cells, His-ub 48 h, 50 μM for 24 h, IP anti-SP1
  ubiquitinated SP1: increased
TRIM25 [9]
  ubiquitinated TRIM25: decreased
SP1 mRNA
  mRNA level of SP1: not affected
TRIM25 mRNA
  mRNA level of TRIM25: not affected
[10]
  side effects: undetectable side effects
SP1 [11]
  expression of SP1 in GC tumor tissues: down-regulated
PCNA
  expression of PCNA in GC tumor tissues: down-regulated
TRIM25 [12]
  expression of TRIM25 in GC tumor tissues: up-regulated
CD31 [13]
  expression of CD31 in GC tumor tissues: down-regulated
MMP2 [14]
  expression of MMP2 in GC tumor tissues: down-regulated
BGC823 cells [1]; BGC823 subcutaneous xenograft, intraperitoneal injection 50 mg/kg/d for 12 days
  tumor inhibitory rate (inhibition of xenograft tumor growth): best tumor inhibitory rate among candidates
JWA
  expression of JWA in GC cells: no obvious effect
MMP2 [15]
  expression of MMP2 in GC cells: down-regulated
HUVECs [16]; supernatent of peptide-treated BGC823 cells
  tubular formation of HUVECs: dose-dependently inhibited
HUVECs [16]; supernatent of peptide-treated SGC7901 cells
  tubular formation of HUVECs: dose-dependently inhibited
[17]
  expression of CD31 (microvessel density (MVD)) in GC tumor tissues: suppressed
Ki-67
  expression of Ki-67 in GC tumor tissues: suppressed
CD31 [18]
  expression of CD31 in GC metastatic tissues: significantly suppressed
HUVECs [19]
  tubular formation of HUVECs, direct treatment: no obvious effects

## CC[C@H](C)[C@H](NC(C)=O)C(=O)NCC(=O)N[C@@H](CC(C)C)C(=O)N[C@@H](CCCCN)C(=O)N[C@@H](CCCNC(=N)N)C(=O)N[C@H](C(=O)N1CCC[C@H]1C(=O)N[C@@H](CCSC)C(=O)NCC(=O)N[C@H](C(=O)N[C@H](C(N)=O)C(C)C)[C@@H](C)CC)[C@@H](C)OP(=O)(O)O [PJP5] (Ac-IGLKR[pT]PMGIV-NH2)
BGC823 cells [20]
  tumor inhibitory effect (ratio of mouse xenograft tumor weight/mice weight): better effects than the others

## CSCC[C@H](NC(=O)[C@H](CCCNC(=N)N)NC(C)=O)C(=O)N[C@@H](CCCCN)C(=O)N[C@@H](CCCCN)C(=O)N[C@@H](CCCNC(=N)N)C(=O)N[C@@H](Cc1ccc(O)cc1)C(=O)N1CCC[C@H]1C(=O)N[C@H](C(=O)N[C@H](C(=O)N[C@@H](Cc1ccccc1)C(=O)N[C@H](C(=O)N[C@@H](CCSC)C(=O)N[C@H](C(=O)N[C@H](C(N)=O)C(C)C)C(C)C)C(C)C)[C@@H](C)OP(=O)(O)O)[C@@H](C)O [PJP3–3] (Ac-RMKKRYPT[pT]FVMVV-NH2)
BGC823 cells [20]
  tumor inhibitory effect (ratio of mouse xenograft tumor weight/mice weight): better effects than the others

## CSCC[C@H](NC(=O)[C@H](CCCNC(=N)N)NC(C)=O)C(=O)N[C@@H](CCCCN)C(=O)N[C@@H](CCCCN)C(=O)N[C@@H](CCCNC(=N)N)C(=O)N[C@@H](Cc1ccc(OP(=O)(O)O)cc1)C(=O)N1CCC[C@H]1C(=O)N[C@H](C(=O)N[C@H](C(=O)N[C@@H](Cc1ccccc1)C(=O)N[C@H](C(=O)N[C@@H](CCSC)C(=O)N[C@H](C(=O)N[C@H](C(N)=O)C(C)C)C(C)C)C(C)C)[C@@H](C)O)[C@@H](C)O [PJP3–1] (Ac-RMKKR[pY]PTTFVMVV-NH2)
BGC823 cells [20]
  tumor inhibitory effect (ratio of mouse xenograft tumor weight/mice weight): better effects than the others
